Tested on: C. albicans ATCC 90028 biofilm
Assay: Antifungal biofilm susceptibility testing (MBIC), NCCLS M27-A broth microdilution, CellTiter 96 viability readout
Format: cell-based, Candida albicans
Protocol: Materials: Itraconazole EP Micronized (lot number C149307) and PCCA Formula #10342 (4 g of Itraconazole EP Micronized +37.574 g of Poloxamer composition) were provided by PCCA (Houston, Tex., USA) as powders. Itraconazole and PCCA Formula #10342 were prepared on the day of the assay. Fluconazole and amphotericin B were obtained as powders and stored at 4° C. […] Strain: Candida albicans isolate ATCC 90028 was obtained from American Type Culture Collection (Manassas, Va.), and used in the course of this study. Methods: To determine antimicrobial activity of itraconazole and micronized poloxamer composition 202 against biofilms of Candida albicans, an antifungal biofilm susceptibility testing was developed in conditions where a Minimum Biofilm Inhibitory Concentration (MBIC) of itraconazole in a micronized poloxamer composition 202, micronized poloxamer excipient, itraconazole, fluconazole and amphotericin B was measured for the C. albicans biofilm according to the NCCLS M27-A broth microdilution method (NCCLS, 1997). The testing medium used for growing was RPMI 1640 (American Biorganics, Inc., […].) supplemented with L-glutamine (Sigma Aldrich®). […] Cell viability was determined by using CellTiter 96® Non-Radioactive Cell Proliferation Assay (Promega, 2013).

`C[C@@H]1[C@H](O)[C@@H](C)/C=C/C=C/C=C/C=C/C=C/C=C/C=C/[C@H](O[C@@H]2O[C@H](C)[C@@H](O)[C@H](N)[C@@H]2O)C[C@@H]2O[C@](O)(C[C@@H](O)C[C@@H](O)[C@H](O)CC[C@@H](O)C[C@@H](O)CC(=O)O[C@H]1C)C[C@H](O)[C@H]2C(=O)O` [Amphotericin B, amphotericin B] was tested, and the MBIC was 0.5 µg/mL and the “Minimum Biofilm Inhibitory Concentration” value (48 h at 35° C., lowest concentration giving 50% reduction of fungal growth, combination value expressed as concentration of itraconazole) was 0.5 µg/mL.
